From patent publication US20180133327A1, “Cell Penetrating Peptides and Complexes Comprising the Same” (Amal Therapeutics SA, priority 2015, published 2018)

Tests used:
[1] = system: CFSE-labeled naïve OVA257-264-specific CD8+ T cells from OT-1 TCR transgenic mice; assay: In vitro epitope presentation assay, MHC class I (BMDCs, proliferation of OT-1 T cells); assay type: cell-based, mouse; details: for in vitro proliferation of CD8 T cells (MHC class I presentation): BMDCs loaded 4 h with 300 nM ZxxOVACD8CD4, LPS o.n., 4 days
Protocol: BMDCs were loaded 4 h with 300nM of the different Zebra CPP truncation conjugated to both ovalbumin CD8 and CD4 epitopes (Z13OVACD8CD4, Z15OVACD8CD4 and Z18OVACD8CD4), then washed and incubated o.n. with 100 ng/ml of LPS. Efficient MHC class I or class II-restricted presentation was monitored after 4 days with CFSE-labeled naïve OVA257-264-specific CD8^+T cells from OT-1 T cell receptor (TCR) transgenic mice OT1 cells (A) or CFSE-labeled naïve OVA323-339-specific CD^+T cells from OT-2 T cell TCR transgenic mice respectively. As positive control, BMDCs were pulsed for 1 h with 5 uM peptide. Data from one experiment representative of three independent experiments.
(§1) BMDCs were loaded with 0.3 μM of each Zebra CPP truncation (Z13 to Z20) conjugated to OVACD8 epitope as described above for 4 hours at 37° C., washed 3 times, then matured overnight at 37° C. with 100 ng/ml LPS (from Salmonella abortus, equi S-form, Enzo Life Sciences). Antigen-loaded mature BMDC were then mixed at a ratio of 1:10 with OT-1 T cell receptor (TCR) transgenic mice splenocytes that had been stained with 10 μM 5-(and 6) Carboxyfluorescein diacetate succinimidyl ester (CFSE) (Life Technologies). After 4 days co-incubation of spleen cells and BMDCs, antigen-specific proliferation was assessed by flow cytometry, measuring CFSE dilution on CD8 T cells and live-gated cells. OT-1 mice express TCR specific for MHC class I restricted OVA257-264.
In order to assess the capacity of the ZEBRA CPP truncations to stimulate an integrated immune response including CD4 T cells, antigenic cargoes were produced that included both CD8 and CD4 T cell epitopes from OVA, and conjugated to Z13, Z15 and Z18. Accordingly, the following constructs (Z13OVACD8CD4, Z15OVACD8CD4 and Z18OVACD8CD4) were synthesized:
Processing and presentation of the CD8 and CD4 T cell epitopes were monitored, as described in Example 2 for CD8 T cell epitopes, by measuring the in vitro proliferation of naïve OT-1 T cells (CD8 T cell epitopes; FIG. 4A) and OVA323-339-specific CD4^+ T cells from OT-2 T cell TCR transgenic mice, respectively (FIG. 4B). Briefly, OT-2 T cell TCR transgenic mice express TCR specific for MHC class II restricted OVA323-339.

[2] = system: OVA257-264-specific CD8+ T cells from OT-1 T cell receptor (TCR) transgenic mice; assay: Identification of the best ZEBRA CPP truncations in vitro (proliferation assay) and in vivo (CD8 T cell immune response after vaccination); assay type: cell-based, mouse (C57BL/6; details: each CPP truncation conjugated to OVACD8 epitope; in vitro BMDCs loaded with 0.3 μM, 4 days with OT-1 cells; in vivo 10 nmol s.c. wk0 and wk2 with anti-CD40 and Hiltonol
Excerpt: The functionality of the different ZEBRA CPP truncations was validated both in vitro and in vivo, based on the capacity to stimulate MHC class-I restricted CD8 T cells specific for a model antigen OVA (OVA257-264-specific CD8^+ T cells from OT-1 T cell receptor (TCR) transgenic mice). This capacity should reflect transport of the OVA antigen cargo into APCs. The functional read-out of these experiments was proliferation of OVA-specific CD8 T cells in vitro (FIG. 2A), and for the in vivo studies, the induction of OVA-specific CD8 T cells in the blood of mice vaccinated with the different CPP-OVA conjugates together with adjuvant (FIG. 2B).
To assess the proliferation of OVA-specific CD8 T cells in vitro, bone marrow derived dendritic cells (BMDCs) were prepared from C57BL/6 mice as previously described (Santiago-Raber (2003), J. Exp. Med. 197, 777-788), and used at day 9-10 of culture.
as §1
To assess the induction of OVA-specific CD8 T cells in vivo, C57/BL6 mice were assigned to nine different groups (Z12 to Z20, respectively). Each group of mice was vaccinated by subcutaneous injection of 10 nmol of one selected Zebra CPP truncation (one selected from Z12 to Z20) conjugated to OVACD8 epitope as described above with 100 μg of anti-CD40 at week0 and week2. Mice were also injected with 50 μg of Hiltonol i.m. (right hind leg). Mice were bled 1 wk after the 2nd vaccination in order to assess OVA257-264-specific CD8 T cells.

EG7-OVA tumor cells = assay: Therapeutic effect of ZEBRA CPP truncation-based vaccines in the EG.7-OVA s.c. model; assay type: in vivo, C57BL/6 mice; details: 10 nmol ZxxOVACD8CD4 and 20 μg MPLA s.c. at d5, d13 and d21 after tumor implantation
Protocol: C57BL/6 mice were implanted s.c. with 3×10^5 EG7-OVA tumor cells in the left flank and vaccinated three times (d5, d13 and d21) by s.c. injection of 10nmoles of Z-truncOVACD8CD4 peptides and 20 μg of MPLA in the right flank. Tumor size was measured with a caliper. […] B, D and F: survival curve of 7 mice per group. Median survival is indicated on the graph (m.s.). *, p<0.05; **, p<0.01; ***, p<0.001; ****, p<0.0001 (Log-Rang test).
To investigate the effects of different ZEBRA CPP truncation-based vaccines on tumor growth and survival, the effects of the constructs Z13OVACD8CD4, Z14OVACD8CD4, Z15OVACD8CD4 and Z18OVACD8CD4 (as described in Examples 4 and 6) were investigated in the EG.7-OVA s.c. model. On d0, C57BL/6 mice were implanted s.c. with 3×10^5 EG7-OVA tumor cells in the left flank and assigned to five different groups (control, Z13OVACD8CD4, Z14OVACD8CD4, Z15OVACD8CD4 and Z18OVACD8CD4). Mice were vaccinated three times (namely, at d5, d13 and d21 after tumor implantation) by s.c. injection of either 10 nmol of Z13OVACD8CD4, Z14OVACD8CD4, Z15OVACD8CD4 or Z18OVACD8CD4 and 20μg of MPLA in the right flank. Tumor size was measured with a caliper.

| Sequence | in vitro proliferation of CD8 T cells (MHC class I presentation) [1] | promoting cross-presentation (stimulation of OVA-specific CD8 T cells) [2] | survival time (EG7-OVA tumor cells) | tumor volume (EG7-OVA tumor cells) | efficiency of DC transduction and cargo delivery into the MHC class I antigen processing pathway ([1]; ZxxOVACD8CD4, 300 nM, compared with Z13 or Z15) |
| --- | --- | --- | --- | --- | --- |
| KRYKNRVASRKSRAKFKQLLQHYREVAAAKSSENDRLRLLLK [Z13] | proliferation of both CD8 and CD4 T cells occurred | best truncations for promoting cross-presentation | much more pronounced and highly significant | much more pronounced and highly significant | – |
| KRYKNRVASRKSRAKFKQLLQHYREVAAAK [Z14] | – | best truncations for promoting cross-presentation | much more pronounced and highly significant | much more pronounced and highly significant | – |
| REVAAAKSSENDRLRLLLK [Z18] | proliferation of both CD8 and CD4 T cells occurred | best truncations for promoting cross-presentation | only slight | only slight | less efficient |
| KRYKNRVASRKSRAKFK (CPP Z15) [ZEBRA CPP truncation] | proliferation of both CD8 and CD4 T cells occurred | best truncations for promoting cross-presentation | only slight | only slight | – |
